In PubChem BioAssay (NCI):
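A five-concentration, 48-hour dose response in 96-well plates underlies each endpoint, interpolated linearly between surrounding concentrations. GI50 is the concentration that inhibits growth by half. TGI marks complete inhibition of growth.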

Experiments:
Assay in all cases: NCI-60 cell line screen, 48 h
U251 CNS = system: U251 CNS
NCI-H460 lung = system: NCI-H460 lung
SK-OV-3 ovarian = system: SK-OV-3 ovarian
NCI-H226 lung = system: NCI-H226 lung
RXF 393 renal = system: RXF 393 renal
HCT-15 colon = system: HCT-15 colon
OVCAR-3 ovarian = system: OVCAR-3 ovarian
HCC-2998 colon = system: HCC-2998 colon
PC-3 prostate = system: PC-3 prostate
DU-145 prostate = system: DU-145 prostate

SMILES	TGI (U251 CNS) [µM]	TGI (NCI-H460 lung) [µM]	TGI (SK-OV-3 ovarian) [µM]	TGI (NCI-H226 lung) [µM]	TGI (RXF 393 renal) [µM]	TGI (HCT-15 colon) [µM]	TGI (OVCAR-3 ovarian) [µM]	TGI (HCC-2998 colon) [µM]	TGI (PC-3 prostate) [µM]	TGI (DU-145 prostate) [µM]	GI50 (NCI-H460 lung) [nM]	GI50 (PC-3 prostate) [nM]	GI50 (SK-OV-3 ovarian) [nM]	GI50 (NCI-H226 lung) [nM]	GI50 (DU-145 prostate) [nM]	GI50 (HCT-15 colon) [nM]	GI50 (OVCAR-3 ovarian) [nM]	GI50 (HCC-2998 colon) [nM]
O=C(O)c1cn2c3c(cc(N4CCN(CCO)CC4)cc3c1=O)SCC2	> 100	> 100	> 100	> 100	> 100	> 100	> 100	93.3	–	–	–	–	–	–	–	–	–	–
COc1ccc(/C=c2\sc3n(c2=O)C(N)=C(C#N)C(c2ccc(OC)cc2)C=3c2nc3ccccc3[nH]2)cc1 (stereo unspecified)	34.4	40.9	–	49.2	–	59.2	44.3	64.3	–	–	–	–	–	–	–	–	–	–
CCOC(=O)C(C(=S)Nc1ccccc1)c1nn2c(=O)cc(C)nc2s1 (stereo unspecified)	83	81.1	65.7	70	> 100	85	63.2	60.6	66.3	> 100	–	–	–	–	–	–	–	–
Cc1ccc(OC2CC(n3cnc4ncnc(Cl)c43)OC2Oc2ccc(C)cc2)cc1 (stereo unspecified)	> 100	> 100	> 100	31	–	> 100	33.9	24.9	36.3	53.2	–	–	–	–	–	–	–	–
Nc1[nH]c(=S)nc2snnc12	–	> 100	> 100	> 100	> 100	> 100	> 100	> 100	> 100	> 100	–	–	–	–	–	–	–	–
CN1C(=O)[C@@H]2[C@@H]3c4ccccc4N(S(=O)(=O)C(F)(F)F)[C@@H]3c3[nH]c4ccccc4c3[C@@H]2C1=O	> 100	> 100	> 100	> 100	> 100	> 100	> 100	> 100	> 100	> 100	–	–	–	–	–	–	–	–
N#C/C(=C\NC(=S)c1ccncc1)c1nc2ccccc2s1	> 100	> 100	> 100	> 100	> 100	> 100	> 100	> 100	> 100	> 100	–	–	–	–	–	–	–	–
COCOc1c(C(O[Si](C)(C)C(C)(C)C)c2cnc(Sc3ccccc3)n2C)ccc(OC)c1OC (stereo unspecified)	3.1	3.02	7.74	4.14	2.71	4.32	3.22	3.7	3.04	> 100	–	–	–	–	–	–	–	–
CCOC(=O)c1ccc(C(=O)/C(C(C)=O)=C2\CCCN2C)n1C	> 100	> 100	> 100	> 100	> 100	> 100	> 100	> 100	> 100	> 100	–	–	–	–	–	–	–	–
Fc1ccc2nc3n(c2c1)C(c1c(Cl)cccc1Cl)SC3 (stereo unspecified)	> 100	> 100	> 100	> 100	> 100	> 100	> 100	> 100	> 100	> 100	–	–	–	–	–	–	–	–
CCOC(=O)NC(NC1=NCCS1)(C(=O)OCC)C(F)(F)F (stereo unspecified)	> 100	> 100	> 100	> 100	> 100	> 100	> 100	> 100	> 100	> 100	–	–	–	–	–	–	–	–
COc1ccc(/C=C2\CCC(CNc3ccc(OC)cc3)C2=O)cc1 (stereo unspecified)	38.5	> 85.3	> 100	> 100	29.9	20.4	31.6	48.1	37	> 65.4	–	–	–	–	–	–	–	–
COC1(OC)CC(CO)(CNc2cc(Cl)nc(N)n2)C1	> 100	> 100	> 100	> 100	> 100	> 100	> 100	> 100	> 100	> 100	–	–	–	–	–	–	–	–
CCOC(=O)C1OC(C2(C)OC3(OC4(C=CC3O)OC(C(C)C(=O)C(C)C(O)C(C)CC(C)c3c(Cl)cc(C)c(O)c3C(=O)O)C(C)CC4C)C(C)C2OC)CC1O (stereo unspecified)	4.24	0.714	3.26	1.84	–	> 20.2	3.9	0.264	17.3	5.93	–	–	–	–	–	–	–	–
COc1cc(/C=C/C(=O)c2c(C)nc3ccccc3c2C)ccc1OCCCOc1cc2c(cc1OC)C(=O)N1CCC[C@H]1C=N2	–	–	1.13	0.0616	–	1.01	0.0556	0.0386	1.15	0.0802	29.2	32.6	64	22.7	27.9	278	24.7	18.3
c1ccc2c(c1)ncn2C1CCCCO1 (stereo unspecified)	> 100	–	> 100	> 100	> 100	> 100	> 100	> 100	> 100	> 100	–	–	–	–	–	–	–	–
O=C/C=C/c1ccco1	> 100	–	> 100	> 100	> 100	> 100	> 100	> 100	> 100	> 100	–	–	–	–	–	–	–	–
Cn1/c(=N\S(=O)(=O)c2ccccc2)n(S(=O)(=O)c2ccccc2)c2ccccc21	> 100	–	> 100	> 100	> 100	> 100	> 100	–	> 100	> 100	–	–	–	–	–	–	–	–
CN(C)c1nncc2[nH]cnc12	> 100	> 100	–	> 100	> 100	> 100	> 100	–	> 100	> 100	–	–	–	–	–	–	–	–
CCCCCCCCCCCCCC[n+]1ccc2c(C)c3c(c(C)c2c1)c1cc(O)ccc1n3CC	–	1.59	0.849	1.96	–	3.5	–	1.81	1.33	1.63	347	356	280	418	381	1210	–	435
Cc1cccnc1/N=C/c1c(O)n(C)c(=O)[nH]c1=O	> 100	> 100	> 100	> 100	–	> 100	> 100	–	> 100	> 100	–	–	–	–	–	–	–	–
O=S(=O)(O)ON=C1c2ccccc2-c2ccccc21	> 100	> 100	> 100	> 100	> 100	–	> 100	> 100	> 100	> 100	–	–	–	–	–	–	–	–
N#CCCN(CCC#N)c1ccc(/C=C2\N=C(c3ccccc3)N(NC(N)=S)C2=O)cc1	> 100	> 100	> 100	> 100	> 100	> 100	> 100	–	> 100	> 100	–	–	–	–	–	–	–	–

SMILES	TGI (U251 CNS) [µM]	TGI (NCI-H460 lung) [µM]	TGI (SK-OV-3 ovarian) [µM]	TGI (NCI-H226 lung) [µM]	TGI (RXF 393 renal) [µM]	TGI (HCT-15 colon) [µM]	TGI (OVCAR-3 ovarian) [µM]	TGI (HCC-2998 colon) [µM]	TGI (PC-3 prostate) [µM]	TGI (DU-145 prostate) [µM]	GI50 (NCI-H460 lung) [nM]	GI50 (PC-3 prostate) [nM]	GI50 (SK-OV-3 ovarian) [nM]	GI50 (NCI-H226 lung) [nM]	GI50 (DU-145 prostate) [nM]	GI50 (HCT-15 colon) [nM]	GI50 (OVCAR-3 ovarian) [nM]	GI50 (HCC-2998 colon) [nM]
CCOC(=O)C1=C(C)N(c2ccc(C)cc2)C2=C(C(=O)N(c3ccccc3)C2c2ccccc2)C1c1ccccc1 (stereo unspecified)	> 25	> 25	–	> 25	> 25	> 25	> 25	> 25	–	–	–	–	–	–	–	–	–	–
O=C1CCC(=O)N1n1c(Cc2ccc(Cl)cc2)n[nH]c1=O	> 100	> 100	> 100	> 100	–	> 100	> 100	> 100	> 100	> 100	–	–	–	–	–	–	–	–
CC(C)[Si](OC1=CCC[C@H]2NC(=O)[C@@H](Cc3ccccc3)[C@@]12C)(C(C)C)C(C)C	11.6	12.4	18.9	–	15	15.6	19.7	4.42	12.3	22.1	–	–	–	–	–	–	–	–
Cn1c2ccccc2c2c(=O)[nH]c(=O)[nH]c21	> 100	–	> 100	> 100	> 100	> 100	> 100	> 100	–	> 100	–	–	–	–	–	–	–	–
CNC(=O)N(C)COC	> 100	> 100	> 100	> 100	–	> 100	> 100	> 100	–	–	–	–	–	–	–	–	–	–
COC(=O)/C=C/c1ccc2c(c1)CC1(C2)Cc2cc3c(cc2C1=O)CCC3 (stereo unspecified)	> 100	> 100	–	> 100	84.9	> 100	43.7	> 100	> 100	> 100	–	–	–	–	–	–	–	–
N=c1c2c(-c3ccccc3)c[nH]c2ncn1N	> 100	–	> 100	> 100	–	> 100	> 100	> 100	> 100	–	–	–	–	–	–	–	–	–
CCOc1ccc(/C=N/[N+](C)(C)C)cc1OCC	> 10	–	> 10	–	–	> 10	> 10	> 10	> 10	> 10	–	–	–	–	–	–	–	–
CC(C)(C)c1cc(C2=NN(c3ccccc3)C(c3ccccc3)C2)cc(C(C)(C)C)c1O (stereo unspecified)	> 100	> 100	> 100	> 100	> 100	> 100	> 100	–	> 100	> 100	–	–	–	–	–	–	–	–
O=C(/C=C/c1ccc(O)c(O)c1)c1cc(O)cc(O)c1	22.7	–	42.9	51.5	22.8	29.2	26.4	–	28.5	44.3	–	–	–	–	–	–	–	–
O=C1/C(=C/c2cccc(Br)c2)CSC/C1=C\c1cccc(Br)c1	3.53	7.26	42	–	3.79	15.4	9.98	3.3	10.4	24.3	–	–	–	–	–	–	–	–
CSCCCNC(=O)c1csc(-c2csc(C(CNC(=O)OC(C)(C)C)CNC(=O)OC(C)(C)C)n2)n1	71.5	> 100	> 100	> 100	> 100	> 100	> 100	–	> 100	> 100	–	–	–	–	–	–	–	–
COC(=O)c1ccc(C)cc1/C=C1\Cc2ccc(C)cc2C1=O	32.3	> 100	–	24.9	31.9	43.1	31.2	38.4	> 100	39	–	–	–	–	–	–	–	–
CN1CCC(CN2c3ccccc3Sc3ccccc32)CC1	29.2	28.5	30.2	28.8	15.1	32.4	29	25.6	–	–	–	–	–	–	–	–	–	–
CC(=O)OC(CCC1(C)OC1COc1ccc(CCNC(=O)c2ccccc2)cc1)C(C)(C)OC(C)=O (stereo unspecified)	> 100	36.7	> 100	> 100	43.8	> 100	54.5	–	–	–	–	–	–	–	–	–	–	–
Cc1ccc(O)c(-c2cc(-c3cccc(Cl)c3)c(C#N)c(N)n2)c1	30	54	66.2	55.4	47.8	28	> 100	–	83.4	> 100	–	–	–	–	–	–	–	–
Nc1nc(N)c2ncn(Cc3ccccc3CCl)c2n1	> 100	> 100	> 100	> 100	–	> 100	> 100	–	> 100	> 100	–	–	–	–	–	–	–	–
O=C(O)c1cnc2[nH]ccn2c1=O	> 100	> 100	> 100	> 100	–	> 100	> 100	> 100	> 100	> 100	–	–	–	–	–	–	–	–
COC(=O)C1CCC(=O)N1C(c1ccc(OC)cc1)c1ccc(OC)cc1 (stereo unspecified)	> 100	> 100	> 100	> 100	–	> 100	> 100	> 100	> 100	> 100	–	–	–	–	–	–	–	–
CCCCCCOP(=O)(OCCCCCC)C(NC(=O)OCC)(C(F)(F)F)C(F)(F)F	> 100	> 100	> 100	66.2	76.9	> 100	> 100	–	> 100	> 100	–	–	–	–	–	–	–	–
O=C(/C=C/c1ccc(/C=C/C(=O)c2ccc(O)cc2)cc1)c1ccc(O)cc1	> 100	> 100	–	> 100	> 100	> 100	> 100	> 100	> 100	> 100	–	–	–	–	–	–	–	–
O=c1[nH]c(=O)n(C2CC(O)C(CO)O2)cc1C1=NC1 (stereo unspecified)	> 100	> 100	> 100	> 100	> 100	> 100	> 100	> 100	–	> 100	–	–	–	–	–	–	–	–
O=C1CCCC/C1=C\c1ccc(Br)cc1	9.79	98.2	44.5	–	–	–	44.3	44.4	> 100	> 100	–	–	–	–	–	–	–	–
